Earlier results as cited in US20250064843A1, “METHOD AND MEDICAMENT FOR TREATING AMYOTROPHIC LATERAL SCLEROSIS” (4B TECHNOLOGIES (BEIJING) CO., LIMITED, priority 2021, published 2025).
≈ marks a conversion by molar mass, not a printed value.

Columns and labels:
[1] = target: IGF1R (Homo sapiens, UniProt P08069); conditions: for IGF1R
[2] = test system: proliferation; conditions: for proliferation
[3] = test system: mouse leukemia cells; conditions: on mouse leukemia cells
[4] = test system: ALS-mimic mouse model; conditions: NR3C1 antagonist
[5] = target: T1, KCNC1 (Homo sapiens, UniProt P48547); conditions: for KCNC1
T1 sequence (P48547 1-511): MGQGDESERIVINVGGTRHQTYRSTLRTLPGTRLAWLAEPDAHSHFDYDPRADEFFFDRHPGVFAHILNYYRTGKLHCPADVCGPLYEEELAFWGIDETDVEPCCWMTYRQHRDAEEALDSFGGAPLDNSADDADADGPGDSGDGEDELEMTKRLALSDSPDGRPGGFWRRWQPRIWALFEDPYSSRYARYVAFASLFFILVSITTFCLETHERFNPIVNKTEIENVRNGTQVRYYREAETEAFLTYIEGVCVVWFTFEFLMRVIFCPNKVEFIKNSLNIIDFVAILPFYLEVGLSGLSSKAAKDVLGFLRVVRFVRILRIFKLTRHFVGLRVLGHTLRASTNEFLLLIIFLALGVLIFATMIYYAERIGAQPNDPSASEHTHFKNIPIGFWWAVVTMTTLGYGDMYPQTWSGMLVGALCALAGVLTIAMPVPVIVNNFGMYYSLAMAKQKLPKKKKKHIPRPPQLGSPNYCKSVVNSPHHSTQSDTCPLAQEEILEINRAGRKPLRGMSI

[6] = test system: leukemia cells; conditions: on leukemia cells at 24 h
[7] = test system: human neutrophils; conditions: in human neutrophils
[8] = target: T2, NR3C1 (Homo sapiens, UniProt P04150); conditions: for NR3C1; retrieved from Selleckchem.com
T2 sequence (P04150 1-777): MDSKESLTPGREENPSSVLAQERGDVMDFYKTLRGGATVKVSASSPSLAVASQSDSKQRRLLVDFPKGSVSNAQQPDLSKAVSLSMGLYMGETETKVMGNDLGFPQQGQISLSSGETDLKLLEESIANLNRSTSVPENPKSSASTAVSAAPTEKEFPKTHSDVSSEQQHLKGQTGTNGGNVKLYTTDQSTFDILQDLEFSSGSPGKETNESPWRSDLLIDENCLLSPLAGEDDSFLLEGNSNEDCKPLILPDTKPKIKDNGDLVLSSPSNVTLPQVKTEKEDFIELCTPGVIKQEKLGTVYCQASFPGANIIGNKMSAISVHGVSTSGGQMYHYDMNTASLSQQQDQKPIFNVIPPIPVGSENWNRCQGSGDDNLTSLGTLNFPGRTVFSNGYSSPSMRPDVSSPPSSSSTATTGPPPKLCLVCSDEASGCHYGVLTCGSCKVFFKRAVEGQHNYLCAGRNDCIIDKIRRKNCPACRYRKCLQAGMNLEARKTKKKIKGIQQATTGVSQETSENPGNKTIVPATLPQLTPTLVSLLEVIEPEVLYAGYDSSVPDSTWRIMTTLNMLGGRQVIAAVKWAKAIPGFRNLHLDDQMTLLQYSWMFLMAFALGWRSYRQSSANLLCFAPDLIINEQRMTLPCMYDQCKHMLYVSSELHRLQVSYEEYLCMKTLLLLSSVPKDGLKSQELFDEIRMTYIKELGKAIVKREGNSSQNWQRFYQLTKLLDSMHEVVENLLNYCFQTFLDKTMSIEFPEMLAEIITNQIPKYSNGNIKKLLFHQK

[9] = test system: ALS patients; conditions: NR3C1 agonists

IGF1R, sequence (P08069 31-1367): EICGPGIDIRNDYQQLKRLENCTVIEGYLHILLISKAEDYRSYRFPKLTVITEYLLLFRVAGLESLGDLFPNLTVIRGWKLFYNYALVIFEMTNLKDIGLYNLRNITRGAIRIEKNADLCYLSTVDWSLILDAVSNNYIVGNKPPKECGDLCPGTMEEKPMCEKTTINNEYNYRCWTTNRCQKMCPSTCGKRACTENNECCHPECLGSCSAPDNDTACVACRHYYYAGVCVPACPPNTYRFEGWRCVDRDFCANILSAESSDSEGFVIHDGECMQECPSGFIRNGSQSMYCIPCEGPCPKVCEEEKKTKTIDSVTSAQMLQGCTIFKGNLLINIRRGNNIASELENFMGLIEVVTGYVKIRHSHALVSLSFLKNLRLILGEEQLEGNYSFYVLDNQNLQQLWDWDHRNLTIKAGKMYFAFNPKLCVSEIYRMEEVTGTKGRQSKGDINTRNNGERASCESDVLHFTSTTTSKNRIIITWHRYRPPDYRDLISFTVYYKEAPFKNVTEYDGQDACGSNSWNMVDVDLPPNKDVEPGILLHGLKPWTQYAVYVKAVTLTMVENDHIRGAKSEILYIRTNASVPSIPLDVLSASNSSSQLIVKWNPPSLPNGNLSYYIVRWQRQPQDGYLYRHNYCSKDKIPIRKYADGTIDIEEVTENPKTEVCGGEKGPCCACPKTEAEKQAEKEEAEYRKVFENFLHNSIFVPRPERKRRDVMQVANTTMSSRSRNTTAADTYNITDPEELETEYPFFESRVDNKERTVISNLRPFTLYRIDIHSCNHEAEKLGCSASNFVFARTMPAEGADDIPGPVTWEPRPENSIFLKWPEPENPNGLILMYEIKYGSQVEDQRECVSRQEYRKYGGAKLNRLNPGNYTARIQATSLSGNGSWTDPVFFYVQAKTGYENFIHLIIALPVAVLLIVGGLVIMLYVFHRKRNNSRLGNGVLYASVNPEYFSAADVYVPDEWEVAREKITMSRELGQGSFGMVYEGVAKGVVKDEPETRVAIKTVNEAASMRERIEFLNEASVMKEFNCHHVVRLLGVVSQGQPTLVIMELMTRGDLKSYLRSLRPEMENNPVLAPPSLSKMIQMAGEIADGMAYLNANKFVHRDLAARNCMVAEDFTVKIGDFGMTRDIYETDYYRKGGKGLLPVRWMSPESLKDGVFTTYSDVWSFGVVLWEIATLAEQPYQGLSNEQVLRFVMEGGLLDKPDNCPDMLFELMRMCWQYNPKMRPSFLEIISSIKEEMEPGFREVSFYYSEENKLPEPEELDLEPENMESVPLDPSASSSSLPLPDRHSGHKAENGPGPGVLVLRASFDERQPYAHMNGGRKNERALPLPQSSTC

**Q.** Which IC50 [1] does the source give for `COc1cc([C@@H]2c3cc4c(cc3[C@H](O)[C@H]3COC(=O)[C@@H]23)OCO4)cc(OC)c1OC` [AXL-1717, picropodophyllin] here?
**A.** 1 nM

**Q.** For `COc1cc(C)c(/C=C/C(C)=C/C=C/C(C)=C/C(=O)O)c(C)c1C` [Acitretin, (2E,4E,6E,8E)-9-(4-methoxy-2,3,6-trimethylphenyl)-3,7-dimethylnona-2,4,6,8-tetraenoic acid], which IC50 [2] is on record?
**A.** 6600 nM

**Q.** For `Nc1ncn([C@@H]2O[C@H](CO)[C@@H](O)[C@H]2O)c(=O)n1` [Azacitidine, 5-azacytidine], which IC50 [3] is on record?
**A.** 0.019 µg/mL (≈ 0.0778 µM)

**Q.** With `O=C(c1ccccn1)[C@]12Cc3cnn(-c4ccc(F)cc4)c3C=C1CCN(S(=O)(=O)c1ccc(C(F)(F)F)cc1)C2` [CORT113176] as the compound, how does the “effect on pro-inflammatory factors” value [4] read?
**A.** reducing the expression and origin of pro-inflammatory factors

**Q.** With `Nc1ccncc1` [Dalfampridine, 4-aminopyridine] as the compound, how does the IC50 [5] read?
**A.** 29000 nM

**Q.** With `Nc1ncn([C@H]2C[C@H](O)[C@@H](CO)O2)c(=O)n1` [Decitabine, 5-aza-2′-deoxycytidine] as the compound, how does the IC50 [6] read?
**A.** 100 nM

**Q.** For `CC(CCc1ccccc1)NCC(O)c1ccc(O)c(C(N)=O)c1` (stereo not drawn) [Labetalol], which IC50 [7] is on record?
**A.** 13.2 mg/L in

**Q.** Which IC50 [8] does the source give for `CC#C[C@]1(O)CCC2C3CCC4=CC(=O)CCC4=C3[C@@H](c3ccc4c(c3)OCO4)C[C@@]21C` (stereo partly drawn) [ORG-34517] here?
**A.** 17.9 nM

**Q.** With `C[C@]12C=CC(=O)C=C1CC[C@@H]1[C@@H]2C(=O)C[C@@]2(C)[C@H]1CC[C@]2(O)C(=O)CO` [prednisone] as the compound, how does the “response to immunosuppression therapy” value [9] read?
**A.** none of the patients reached the pre-defined responder criteria
